pIC50: −log10 of the molar value. Read-outs that look alike come from different tables or passages of the source.
Molecular target: T1, GPR73 (prokineticin 1 receptor) (Homo sapiens, UniProt Q8TCW9)
T1 construct: expressed in transfected cells; host or cells: HEK 293
Assay: PK1 functional assay: Ca2+ mobilization on the FLIPR
Type: cell-based
Settings: for inhibition at 10 µM: read-out: Ca^2+ Mobilization % Inh @10 µM; for pIC50: HEK 293 GPR73 cells, read-out: Ca^2+ Mobilization IC50
Procedure: At a time of 24 h prior to running the assay, in cell culture media (DMEM containing high Glucose and L-glutamine, 10% FBS, 1% Pen/Streptomycin, 1% Sodium Pyruvate, 20 mM HEPES, Zeocin 200 mg/L), 100 µL of 1.3*10^6/ml HEK 293 GPR73 (prokineticin 1 receptor) expressing cells were plated in a 96 well poly-d-lysine coated plate (Costar), and incubated at 37° C. and 5% CO2. On the day in which the assay was run, the media was removed and 200 µL of 5× Calcium Plus Dye (Molecular Devices) which was previously resuspended with 200 mL of assay buffer [HBSS w/Ca^2+ and Mg^2+ w/o phenol red, 20 mM HEPES, 0.1% BSA, 10 mL probenecid (710 mg probenecid in 5 mL of 1N NaOH, to which was then added 5 mL HBSS containing 20 mM HEPES)] was added to each well of the 96-well plate. The plate was incubated at 37° C. and 5% CO2 for 30 min in dark. The plate was removed and allowed to reach RT for 15 min in the dark. The assay was then run on the FLIPR. In Brief: base line read for 1 min, compound added (25 μL) and incubated for 4 min, 15 seconds, PK1 ligand preparation added (25 μL) for a final concentration of a previously determined EC50 and fluorescence was counted for 1 min, 45 seconds. Baseline is described as the amount of relative fluorescence read when buffer alone is added to cells. Baseline was subtracted from all wells. Percent of control was calculated as follows: (Baseline subtracted well value is divided by baseline subtracted max value)*100. Percent inhibition is 100 minus the percent of control value.
The IC50 is defined as the amount of a given compound required to inhibit 50% of the maximum signal that is generated by the concentration of PK1 preparation used in our assay. IC50 values were calculated using GraphPad Prism.

T1 sequence (Q8TCW9 whole entry, species assumed): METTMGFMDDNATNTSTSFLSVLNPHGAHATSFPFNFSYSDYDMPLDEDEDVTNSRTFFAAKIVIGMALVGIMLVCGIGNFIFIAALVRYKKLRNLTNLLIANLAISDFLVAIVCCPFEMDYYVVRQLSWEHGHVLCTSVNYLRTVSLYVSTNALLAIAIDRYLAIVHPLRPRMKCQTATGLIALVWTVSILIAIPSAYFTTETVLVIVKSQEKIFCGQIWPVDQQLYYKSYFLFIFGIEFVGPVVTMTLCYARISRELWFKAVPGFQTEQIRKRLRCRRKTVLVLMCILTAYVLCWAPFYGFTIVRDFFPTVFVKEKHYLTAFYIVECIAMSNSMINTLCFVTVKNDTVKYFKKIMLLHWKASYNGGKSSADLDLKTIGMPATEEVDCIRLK

Row | Compound | inhibition at 10 µM (10 µM) [%] | pIC50 | inhibition at 10 µM (10 µM, (further determination)) [%] | pIC50 (IC50 (further determination))
1 | COc1ccc(Cn2c(NCCn3c(N)nc4cc(F)ccc43)nc(=O)n(Cc3ccc(F)cc3)c2=O)cc1 [Cpd 5] | 102 | 7.16 | – | –
2 | COc1ccc(Cn2c(NCc3c[nH]c(N)n3)nc(=O)n(Cc3ccc(F)cc3)c2=O)cc1 [Cpd 6] | 91 | 6.49 | – | –
3 | COc1ccc(Cn2c(NCCn3c(N)nc4ccc(Cl)cc43)nc(=O)n(Cc3ccc(F)cc3)c2=O)cc1 [Cpd 10] | 90 | 6.81 | – | –
4 | COc1ccc(Cn2c(NCCN3Cc4ccccc4N=C3N)nc(=O)n(Cc3ccc(F)cc3)c2=O)cc1 [Cpd 12, 6-[2-(2-Amino-4H-quinazolin-3-yl)-ethylamino]-3-(4-fluoro-benzyl)-1-(4-methoxy-benzyl)-1H-[1,3,5]triazine-2,4-dione] | 94 | 7.55 | – | –
5 | COc1ccc(Cn2c(NCCn3c(N)nc4ccccc43)nc(=O)n(Cc3ccc(Cl)cc3)c2=O)cc1 [Cpd 14] | 95 | 7.11 | – | –
6 | Nc1nc2ccccc2n1CCNc1nc(=O)n(Cc2ccc(F)cc2)c(=O)n1Cc1ccc(OC(F)(F)F)cc1 [Cpd 19] | 102 | 6.98 | 100 | 6.67
7 | Nc1nc2ccccc2n1CCNc1nc(=O)n(Cc2ccc(F)cc2)c(=O)n1Cc1ccc(OC(F)F)cc1 [Cpd 20] | 103 | 7.28 | 101 | 7.28
8 | Nc1nccn1CCNc1nc(=O)n(Cc2ccc(F)cc2)c(=O)n1Cc1ccc(F)cc1 [Cpd 21] | 37 | < 5.00 | – | –
9 | Nc1nccn1CCNc1nc(=O)n(Cc2ccc(F)cc2)c(=O)n1Cc1ccc(OC(F)(F)F)cc1 [Cpd 22] | 100 | 7.21 | – | –
10 | Nc1nc2ccc(F)cc2n1CCNc1nc(=O)n(Cc2ccc(F)cc2)c(=O)n1Cc1ccc(OC(F)F)cc1 [Cpd 25] | 87 | 6.77 | – | –
11 | Nc1nc2ccc(F)cc2n1CCNc1nc(=O)n(Cc2ccc(F)cc2)c(=O)n1Cc1ccc(OC(F)(F)F)cc1 [Cpd 33] | 93 | 6.49 | – | –
12 | Nc1nc2ccc(Cl)cc2n1CCNc1nc(=O)n(Cc2ccc(F)cc2)c(=O)n1Cc1ccc(OC(F)(F)F)cc1 [Cpd 38] | 84 | 6.17 | – | –
13 | Nc1nc2cccc(F)c2n1CCNc1nc(=O)n(Cc2ccc(F)cc2)c(=O)n1Cc1ccc(OC(F)(F)F)cc1 [Cpd 40] | 91 | 6.01 | – | –
14 | NC1=Nc2ccc(Cl)cc2CN1CCNc1nc(=O)n(Cc2ccc(F)cc2)c(=O)n1Cc1ccc(OC(F)F)cc1 [Cpd 43] | 101 | 6.95 | – | –
15 | NC1=Nc2ccccc2CN1CCNc1nc(=O)n(Cc2ccc(F)cc2)c(=O)n1Cc1ccc(OC(F)(F)F)cc1 [Cpd 47] | 100 | 6.91 | – | –
16 | NC1=Nc2cccc(Cl)c2CN1CCNc1nc(=O)n(Cc2ccc(F)cc2)c(=O)n1Cc1ccc(OC(F)(F)F)cc1 [Cpd 48] | 101 | 6.94 | – | –
17 | NC1=Nc2ccc(Cl)cc2CN1CCNc1nc(=O)n(Cc2ccc(F)cc2)c(=O)n1Cc1ccc(OC(F)(F)F)cc1 [Cpd 49] | 103 | 6.63 | – | –
18 | NC1=Nc2cc(Cl)ccc2CN1CCNc1nc(=O)n(Cc2ccc(F)cc2)c(=O)n1Cc1ccc(OC(F)(F)F)cc1 [Cpd 50] | 99 | 6.48 | – | –

Now from value to compound:

Row | inhibition at 10 µM (10 µM) [%] | pIC50 | inhibition at 10 µM (10 µM, (further determination)) [%] | pIC50 (IC50 (further determination)) | Compound
19 | 40.4 | < 5.00 | – | – | COc1ccc(Cn2c(NCCNc3nc4ccccc4[nH]3)nc(=O)n(Cc3ccc(Cl)c(Cl)c3)c2=O)cc1 [Cpd 1, 6-[2-(1H-Benzoimidazol-2-ylamino)-ethylamino]-3-(3,4-dichloro-benzyl)-1-(4-methoxy-benzyl)-1H-[1,3,5]triazine-2,4-dione]
20 | 97 | – | 97 | 8.30 | COc1ccc(Cn2c(NCCn3ccnc3N)nc(=O)n(Cc3ccc(F)cc3)c2=O)cc1 [Cpd 2, 6-[2-(2-Amino-imidazol-1-yl)-ethylamino]-3-(4-fluoro-benzyl)-1-(4-methoxy-benzyl)-1H-[1,3,5]triazine-2,4-dione]
21 | 97 | 7.32 | 96 | 7.38 | COc1ccc(Cn2c(NCCc3cnc(N)[nH]3)nc(=O)n(Cc3ccc(F)cc3)c2=O)cc1 [Cpd 4]
22 | 95 | 6.79 | – | – | COc1ccc(Cn2c(NCCn3c(N)nc4cc(C(F)(F)F)ccc43)nc(=O)n(Cc3ccc(F)cc3)c2=O)cc1 [Cpd 8]
23 | 67 | 5.64 | – | – | COc1ccc(Cn2c(NCCn3c(N)nc4cc(S(C)(=O)=O)ccc43)nc(=O)n(Cc3ccc(F)cc3)c2=O)cc1 [Cpd 9]
24 | 89 | 6.84 | – | – | COc1ccc(Cn2c(NCCn3c(N)nc4c(F)cccc43)nc(=O)n(Cc3ccc(F)cc3)c2=O)cc1 [Cpd 11]
25 | 51 | 5.13 | – | – | COc1ccc(Cn2c(C(=O)NCCn3c(N)nc4ccccc43)cc(=O)n(Cc3ccc(OC)cc3)c2=O)cc1 [Cpd 13, 1,3-Bis-(4-methoxy-benzyl)-2,6-dioxo-1,2,3,6-tetrahydro-pyrimidine-4-carboxylic acid [2-(2-amino-benzoimidazol-1-yl)-ethyl]-amide]
26 | 100 | 7.55 | 97 | 7.24 | Nc1nccn1CCNc1nc(=O)n(Cc2ccc(F)cc2)c(=O)n1Cc1ccc(OC(F)F)cc1 [Cpd 23]
27 | 92 | 7.09 | 88 | 7.82 | Nc1nc2cc(F)ccc2n1CCNc1nc(=O)n(Cc2ccc(F)cc2)c(=O)n1Cc1ccc(OC(F)F)cc1 [Cpd 26]
28 | 85 | 6.51 | – | – | Nc1nc2cc(C(F)(F)F)ccc2n1CCNc1nc(=O)n(Cc2ccc(F)cc2)c(=O)n1Cc1ccc(OC(F)F)cc1 [Cpd 27]
29 | 39 | < 5.00 | – | – | Nc1nc2c(F)cc(F)cc2n1CCNc1nc(=O)n(Cc2ccc(F)cc2)c(=O)n1Cc1ccc(OC(F)F)cc1 [Cpd 28]
30 | 83 | 6.39 | – | – | Nc1nc2ccc(F)c(F)c2n1CCNc1nc(=O)n(Cc2ccc(F)cc2)c(=O)n1Cc1ccc(OC(F)F)cc1 [Cpd 29]
31 | 86 | 6.60 | – | – | Nc1nc2ccc(Cl)cc2n1CCNc1nc(=O)n(Cc2ccc(F)cc2)c(=O)n1Cc1ccc(OC(F)F)cc1 [Cpd 30]
32 | 94 | 6.88 | – | – | Nc1nc2cccc(F)c2n1CCNc1nc(=O)n(Cc2ccc(F)cc2)c(=O)n1Cc1ccc(OC(F)F)cc1 [Cpd 32]
33 | 87 | 6.44 | – | – | Nc1nc2cc(F)ccc2n1CCNc1nc(=O)n(Cc2ccc(F)cc2)c(=O)n1Cc1ccc(OC(F)(F)F)cc1 [Cpd 34]
34 | 59 | 5.30 | – | – | Nc1nc2cc(C(F)(F)F)ccc2n1CCNc1nc(=O)n(Cc2ccc(F)cc2)c(=O)n1Cc1ccc(OC(F)(F)F)cc1 [Cpd 35]
35 | 50 | 5.08 | – | – | Nc1nc2c(F)cc(F)cc2n1CCNc1nc(=O)n(Cc2ccc(F)cc2)c(=O)n1Cc1ccc(OC(F)(F)F)cc1 [Cpd 36]
36 | 72 | 5.66 | – | – | Nc1nc2ccc(F)c(F)c2n1CCNc1nc(=O)n(Cc2ccc(F)cc2)c(=O)n1Cc1ccc(OC(F)(F)F)cc1 [Cpd 37]
37 | 80 | 6.42 | – | – | Nc1nc2c(F)cccc2n1CCNc1nc(=O)n(Cc2ccc(F)cc2)c(=O)n1Cc1ccc(OC(F)(F)F)cc1 [Cpd 39]
38 | 101 | 7.20 | – | – | NC1=Nc2cccc(Cl)c2CN1CCNc1nc(=O)n(Cc2ccc(F)cc2)c(=O)n1Cc1ccc(OC(F)F)cc1 [Cpd 42]
39 | 103 | 6.93 | – | – | NC1=Nc2cc(Cl)ccc2CN1CCNc1nc(=O)n(Cc2ccc(F)cc2)c(=O)n1Cc1ccc(OC(F)F)cc1 [Cpd 44]
40 | 101 | 7.04 | – | – | NC1=Nc2ccc(F)cc2CN1CCNc1nc(=O)n(Cc2ccc(F)cc2)c(=O)n1Cc1ccc(OC(F)F)cc1 [Cpd 45]
41 | 101 | 7.21 | – | – | NC1=Nc2cc(F)ccc2CN1CCNc1nc(=O)n(Cc2ccc(F)cc2)c(=O)n1Cc1ccc(OC(F)F)cc1 [Cpd 46]
42 | 99 | 6.00 | – | – | NC1=Nc2ccc(F)cc2CN1CCNc1nc(=O)n(Cc2ccc(F)cc2)c(=O)n1Cc1ccc(OC(F)(F)F)cc1 [Cpd 51]
43 | 104 | 6.44 | – | – | NC1=Nc2cc(F)ccc2CN1CCNc1nc(=O)n(Cc2ccc(F)cc2)c(=O)n1Cc1ccc(OC(F)(F)F)cc1 [Cpd 52]
44 | 93 | 7.44 | 100 | 7.82 | Nc1ncc(CCNc2nc(=O)n(Cc3ccc(F)cc3)c(=O)n2Cc2ccc(OC(F)F)cc2)[nH]1 [Cpd 53]
